Measurements published in publication PMC12297304, “Molecular networking derived from untargeted LC-MS/MS analysis to discover inhibitors of RANKL-induced osteoclastogenesis from Egyptian marine sponge-associated fungi” (Scientific Reports, 2025).
Entries after “also recorded” stand apart in the source; their conditions may differ.

Columns and labels:
[1] = tested on: RANKL-induced formation of MNCs from RAW264 macrophages; test: Multinucleated TRAP+ve osteoclast (MNCs) counting assay; format: cell-based, murine; details: Mus musculus, RAW264.7, 96 h; RAW264 cells, RANKL 50 ng/mL, 4 days; read-out: IC50, inhibition of RANKL-induced formation of multinucleated osteoclasts (MNCs)
Description: EtOAc fractions of all fungal CH3OH extracts were tested for their ability to inhibit TRAP activity and the formation of multinucleated osteoclasts (MNCs) in RANKL-treated RAW264 macrophages as previously reported[7],[24]. Briefly, RAW264 cells (RIKEN Cell Bank, Tsukuba) were cultured in MEMα medium supplemented with 10% heat-inactivated fetal bovine serum and 1% penicillin/streptomycin and incubated at 37 °C in a 5% CO2 humidified atmosphere in two 96-well plates at a density of 1000 and 6000 cells/well, for TRAP assay and MNCs staining assay, respectively. Samples were then added at a concentration of 50 and 20 µg/mL for extracts, 50, 20, and 10 µM for pure compounds, and 83 µM for the standard quercetin. […]
Following a 4-day incubation period, the differentiated cells were fixed with 4% paraformaldehyde solution (Sigma–Aldrich, USA), washed with PBS, and stained using a TRAP-staining solution, which consisted of 50 mM sodium tartrate, 45 mM sodium acetate, 0.1 mg/mL naphthol AS-MX phosphate (Sigma– Aldrich, USA), and 0.6 mg/mL fast red violet LB salt (Sigma–Aldrich, USA), pH 5.2, for 1 h or longer at room temperature. TRAP-positive cells, that stained red and contained 3 or more nuclei were determined to be multinuclear osteoclasts and were quantified in each well by counting MNCs in 8 fields/well using a light microscope.

[2] = tested on: RAW264 macrophages; test: MTT cytotoxicity assay; format: cell-based, murine; details: at the highest tested concentration
Description: After incubation of cells for one day, media was aspired and replaced with new one supplemented with treatments, whereas controls contained only DMSO. Cells were then kept at 37 °C for three days. Finally, 50 µL of 3-(4,5-dimethylthiazol-2-yl)−2,[…] bromide (MTT) solution (150 µg/mL in medium) was added after aspiration of medium, incubated under the same conditions for 3 h. Then 200 µL of DMSO were added to each well, after removal of the reaction solution, to dissolve the formed formazan salt crystals, and optical density was measured at 570 nm with a microplate reader.

Row | Structure (SMILES) | IC50 [1] [µM] | Toxic effect against RAW264 macrophages [2]
1 | COc1cc(O)c2c(c1)C1=CC(O)C(O)CC1(C)OC2=O (stereo not shown) [Compound 8, altenuene] | 38.4 | without cytotoxicity; also recorded: no toxic effect
2 | COCC(O)COc1ccc(C(C)(C)c2ccc(OCC(O)COC)cc2)cc1 (stereo not shown) [Compound 1, 2,2-bis‐[4‐(2‐hydroxy-3-methoxy-propoxy)phenyl]propane] | 57.1 | without cytotoxicity; also recorded: no toxic effect
